Reference: US20170112897A1, “METHODS FOR TREATING BRAIN INSULIN RESISTANCE” (priority 2015, published 2017)

System: SOCS3 associated with the insulin receptor (SOCS3/IRβ)
Experiment: Ex vivo Western blotting of SOCS3 to IR beta chain ratio in hippocampal formation
Format: cell-based, human
Conditions: MCI cases
Source text: The data shown are ratios of SOCS3 to IR beta chain (IRβ) in ex vivo Western blotting tests on the hippocampal formation of age- and sex-matched normal (N), non-amnestic mild cognitive impairment (naMCI), amnestic mild cognitive impairment (aMCI), and AD dementia (ADd) cases (n=10 in each group). The basal SOCS3/IRβ levels were highly elevated in naMCI, aMCI, and ADd cases compared to the normal cases. […] Asterisks indicate statistical significance levels for differences within diagnostic groups (*=p<0.05 and *** p=<0.0001).

D-Ala^2 GIP
basal SOCS3/IRβ ratio: highly effective in reducing this ratio
